Reference: patent US12213959B2, “Use of 3-O-sulfamoyloxy-7β-methyl-d-homo-6-oxaestra-1,3,5(10),8(9)-tetraen-17a-one to treat breast cancer” (priority 2018, dated 2025)
Values joined by “and” are separate entries in the source; they are usually repeats but may differ in a detail not shown here. Equal values may be shown once. Marks after values point to notes of the source that are not given here.

Legend:
[1] = test system: breast tumours in FBV/N female mice, transgenic for HER-2/neu; assay: Antitumour activity on breast tumours of HER-2/neu transgenic mice; type: in vivo; details: for Relative change of the average total volume of tumours to that of Day −1 (M): medicament 100.0 mg/kg daily i.g.
Method: The study was carried out on female FVB mice transgenic for HER-2/neu of the conventional category, the strain being obtained from the mouse bank Charles River Laboratories (Italy).
Duration of the administration course was 27-28 days.
The control groups were given the olive oil (placebo).
The macroscopically detectable tumor nodes were measured in the animals once per week during the weighing process.

[2] = test system: inoculated human tumour of triple-negative breast cancer; assay: Animal models with inoculated human triple-negative breast cancer tumour; details: in vivo
[3] = test system: MDA-MB-231 cell line of triple negative breast cancer; assay: Cell growth inhibition on MDA-MB-231; type: cell-based; details: Homo sapiens
[4] = test system: uterine body; assay: Hormonal effects on the uterine body (uterine weight); type: in vivo, mice; details: for Uterine weight: end of observation
Method: The hormonal effects of the medicament on the uterine body was analyzed by comparing the uterine weight without uterine horns at the end of the observation period (Table 13).

[5] = medicament 20 mg/kg, vs Control-2, Day 0
[6] = medicament 20 mg/kg, vs Control-2, Day 7
[7] = medicament 20 mg/kg, vs Control-2, Day 14
[8] = medicament 20 mg/kg, vs Control-2, Day 21
[9] = medicament 20 mg/kg, vs Control-2, Day 28
[10] = medicament 100 mg/kg daily i.g., Day 0
[11] = medicament 100 mg/kg daily i.g., Day 7
[12] = medicament 100 mg/kg daily i.g., Day 14
[13] = medicament 100 mg/kg daily i.g., Day 21
[14] = medicament 100 mg/kg daily i.g., Day 28
[15] = medicament 100 mg/kg daily i.g., Day 28 vs Day 0
[16] = medicament 100 mg/kg, end of observation
[17] = medicament 100 mg/kg, vs Control-2, Day 0
[18] = medicament 100 mg/kg, vs Control-2, Day 7
[19] = medicament 100 mg/kg, vs Control-2, Day 14
[20] = medicament 100 mg/kg, vs Control-2, Day 21
[21] = medicament 100 mg/kg, vs Control-2, Day 28

C[C@H]1Oc2cc(OS(N)(=O)=O)ccc2C2=C1[C@@H]1CCCC(=O)[C@@]1(C)CC2 [medicament, 3-O-sulfamoyloxy-7β-methyl-O-homo-6-oxaestra-1,3,5(10),8(9)-tetraen]
volume of new tumours, less than the control (Control-2) value ([1]; medicament 20 mg/kg, end of observation): 32% | TGI (average total tumour volume) [1, 5]: −116% | TGI (average tumor volume) [1, 5]: −125% | TGI (average total tumour volume) [1, 6]: −114% | TGI (average tumor volume) [1, 6]: −115% | TGI (average total tumour volume) [1, 7]: −45% | TGI (average tumor volume) [1, 7]: −54% | TGI (average total tumour volume) [1, 8]: −19% | TGI (average tumor volume) [1, 8]: −26% | TGI (average total tumour volume) [1, 9]: 12% | TGI (average tumor volume) [1, 9]: 10% | Average volume of new tumours at the end of the observation period ([1]; medicament 100 mg/kg): 0.18±0.04 cm^3 and 0.18 cm^3 | Average total volume of tumours in mice (M) [1, 10]: 0.28 cm^3 | Average volume of tumors existing at the beginning of the experiment (M) [1, 10]: 0.13 cm^3 | Relative change of the average total volume of tumours to that of Day −1 (M) ([1]; Day 0): 0% | Average total volume of tumours in mice (M) [1, 11]: 0.41 cm^3 | Average volume of tumors existing at the beginning of the experiment (M) [1, 11]: 0.19 cm^3 | Relative change of the average total volume of tumours to that of Day −1 (M) ([1]; Day 7): 42% | Average total volume of tumours in mice (M) [1, 12]: 0.59 cm^3 | Average volume of tumors existing at the beginning of the experiment (M) [1, 12]: 0.27 cm^3 | Relative change of the average total volume of tumours to that of Day −1 (M) ([1]; Day 14): 89* % | Average total volume of tumours in mice (M) [1, 13]: 0.81 cm^3 | Average volume of tumors existing at the beginning of the experiment (M) [1, 13]: 0.37 cm^3 | Relative change of the average total volume of tumours to that of Day −1 (M) ([1]; Day 21): 177*** % | Average total volume of tumours in mice (M) [1, 14]: 0.97* cm^3 | Average volume of tumors existing at the beginning of the experiment (M) [1, 14]: 0.44 cm^3 | Relative change of the average total volume of tumours to that of Day −1 (M) ([1]; Day 28): 269*** % | Average total tumour volume, % of change to the initial value [1, 15]: 246% | Average tumor volume, % of change to the initial value [1, 15]: 238% | Absolute number of new tumours [1, 16]: 19 | frequency of stabilisations of tumours present at initiation of treatment [1, 16]: 9% | volume of new tumours, less than the control (Control-2) value [1, 16]: 36% | TGI (average total tumour volume) [1, 17]: −47% | TGI (average tumor volume) [1, 17]: −63% | TGI (average total tumour volume) [1, 18]: −41% | TGI (average tumor volume) [1, 18]: −46% | TGI (average total tumour volume) [1, 19]: 9% | TGI (average tumor volume) [1, 19]: 4% | TGI (average total tumour volume) [1, 20]: 18% | TGI (average tumor volume) [1, 20]: 14% | TGI (average total tumour volume) [1, 21]: 30% | TGI (average tumor volume) [1, 21]: 28% | relative change in the total volume of tumours versus control groups ([1]; medicament 20 and 100 mg/kg): statistically significantly lower | action compared with Tamoxifen and Letrozole [2]: better action than that of the clinically used Tamoxifen and an aromatase inhibitor Letrozole | IC50 [3]: 4.8 µM | uterine weight differences as compared to the control group ([4]; dose range from 2.0 to 100 mg/kg): No statistically significant differences | Uterine weight ([4]; medicament 2 mg/kg, All mice): 37 ± 6 MI | Uterine weight ([4]; medicament 2 mg/kg, estrous cycle phase D): 24 ± 7 MI | Uterine weight ([4]; medicament 2 mg/kg, estrous cycle phase E): 53 ± 3 MI | Uterine weight ([4]; medicament 20 mg/kg, All mice): 50 ± 4 MI | Uterine weight ([4]; medicament 20 mg/kg, estrous cycle phase D): 45 ± 13 MI | Uterine weight ([4]; medicament 20 mg/kg, estrous cycle phase E): 53 ± 4 MI | Uterine weight ([4]; medicament 100 mg/kg, All mice): 52 ± 5 MI | Uterine weight ([4]; medicament 100 mg/kg, estrous cycle phase D): 34 ± 13 MI | Uterine weight ([4]; medicament 100 mg/kg, estrous cycle phase E): 56 ± 5 MI | uterotropic activity ([4]; mouse, in vivo): no uterotropic activity
